We go through three compounds from EP4733299A1, “SULFUR-CONTAINING FUSED RING COMPOUND, PHARMACEUTICAL COMPOSITION CONTAINING SAME, AND PREPARATION METHOD THEREFOR AND USE THEREOF” (Shenzhen Braegen Pharmaceutical Co., Ltd., priority 2023, dated 2024).

The assay concerns the target T1, a-Syn aggregates (Homo sapiens, UniProt P37840, A53T).
T1 construct: tissue The Jackson Laboratory 017682; host or cells: brain sections of rotenone-treated transgenic mice
Nature of the assay: Binding specificity on brain slices of rotenone-treated SNCA transgenic mice. The following applies: for capture of a-Syn aggregates: brain slices, rotenone-treated SNCA Tg mice, Fig. 2. On the procedure:
To further explore whether the positive compounds selectively bind to Lewy bodies, brain slices from mice were used to test the binding specificity assays.
Staining with a-Synuclein protein coding gene (SNCA) transgenic mice (the Jackson Laboratory; stock numbers: 017682) were treated with rotenone (Oral gavage of rotenone under the following protocol: Mice were treated with 0.1 mL/25 g of vehicle containing 1% methylcellulose (Sigma, Catalog No.: M0512) and 1.25% chloroform (Sigma, Catalog No.: 2432) or a solution containing 0.625 mg/mL of rotenone (ULTRA Scientific, Catalog No.: PST-890) with 1% methylcellulose and 1.25% chloroform. We prepared rotenone solution by dissolving rotenone in chloroform and then diluting into 1% methylcellulose solution while mixing vigorously. Rotenone or vehicle control was orally administered with a 1.2 x 60 mm gavage (Unimed, Switzerland) once a day for 5 days/week, consecutively for 3 months.), which contains abundant LB-like inclusions. Furthermore, brain slices from NFT abundant Tau P301S mice and Aβ-enriched 5 x FAD mice were also used separately.
The brain slices were fixed and incubated for 12 h at 4 °C with primary antibodies followed by incubation with Alexa Fluor 568-, Alexa Fluor 488-, or Alexa Fluor 647-conjugated secondary antibodies (Invitrogen) for 3 h at room temperature. Then stained with ThS (Sigma, Catalog No.: T1892) or candidate compounds at room temperature, 4',6-diamidino-2-phenylindole (DAPI, 1 µg/ml) (Sigma-Aldrich) was used for the nuclear staining. The slides were imaged with Olympus FluoView FV1000 confocal laser scanning microscope using Olympus FluoView software to acquire data.

In the case of `COc1cc(/C=C/c2nc3cc(C)c(N(C)CCOCCF)cc3s2)ccc1O` [Compound A, (E)-4-(2-(6-((2-(2-fluoroethoxy)ethyl)(methyl)amino)-5-methylbenzo[d]thiazol-2-yl)vinyl)-2-methoxyphenol], the “capture of a-Syn aggregates” value is recorded as “sensitively captured a-Syn aggregates”.
The same measure, in the same setting: the entry for `COc1cc(/C=C/c2nc3cc(C)c(N(C)CCOCCF)cc3s2)cc(Br)c1O` [Compound S, (E)-2-bromo-4-(2-(6-((2-(2-fluoroethoxy)ethyl)(methyl)amino)-5-methylbenzo[d]thiazol-2-yl)vinyl)-6-methoxyphenol] is “sensitively captured a-Syn aggregates”.
In the case of thioflavin-S [ThS, reference compound], where the note is “positive control, mouse brain sections”, the “co-localization with aggregates in the brain sections” value is “co-localized with all of these aggregates”.
